Patent US20220289698A1, “INHIBITORS OF HUMAN ATGL” (Karl-Franzens-Universität Graz, priority 2019, published 2022)
Like-named read-outs stand apart in the source and are kept apart here.

Columns and labels:
human ATGL = biological target: T1, human ATGL (Homo sapiens, UniProt Q96AD5); test: TG hydrolase activity, Expi cell lysates expressing human ATGL + CGI-58, radiolabelled triolein; type: biochemical
T1 construct: made in house; host or cells: Expi cells (lysate, not purified)
T1 sequence (Q96AD5 1-504): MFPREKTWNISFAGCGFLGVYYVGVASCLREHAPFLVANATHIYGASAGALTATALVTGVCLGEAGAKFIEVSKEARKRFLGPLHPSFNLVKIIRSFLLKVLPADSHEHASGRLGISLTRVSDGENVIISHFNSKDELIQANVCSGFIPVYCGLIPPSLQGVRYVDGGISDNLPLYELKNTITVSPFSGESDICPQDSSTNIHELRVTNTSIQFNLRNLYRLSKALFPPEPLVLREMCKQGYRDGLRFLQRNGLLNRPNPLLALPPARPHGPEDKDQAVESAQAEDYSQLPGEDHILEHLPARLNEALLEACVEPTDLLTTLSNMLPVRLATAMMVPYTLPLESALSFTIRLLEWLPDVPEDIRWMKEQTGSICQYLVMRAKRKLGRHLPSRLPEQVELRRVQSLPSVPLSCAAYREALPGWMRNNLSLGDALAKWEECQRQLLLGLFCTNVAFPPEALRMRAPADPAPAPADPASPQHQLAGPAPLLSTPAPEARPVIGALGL
Procedure, shortened: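 Lysates of Expi cells expressing ATGL, supplemented with purified CGI-58 and inhibitor in DMSO, incubated 1 h at 37 °C with emulsified radiolabelled triolein (330 μM) in potassium phosphate pH 7.0 with 5% FA-free BSA. Released FA counted by liquid scintillation after phase extraction; IC50 versus DMSO control, duplicates.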

murine ATGL = biological target: T2, murine ATGL (Mus musculus, UniProt Q8BJ56); test: TG hydrolase activity, Expi lysates expressing mouse ATGL + CGI-58, radiolabelled triolein; type: biochemical; settings: 50 μM compound; Example 237; read-out: Inhibition of murine ATGL at 50 μM − mean [%]
T2 construct: made in house; host or cells: Expi cells (lysate)
T2 sequence (Q8BJ56 1-486): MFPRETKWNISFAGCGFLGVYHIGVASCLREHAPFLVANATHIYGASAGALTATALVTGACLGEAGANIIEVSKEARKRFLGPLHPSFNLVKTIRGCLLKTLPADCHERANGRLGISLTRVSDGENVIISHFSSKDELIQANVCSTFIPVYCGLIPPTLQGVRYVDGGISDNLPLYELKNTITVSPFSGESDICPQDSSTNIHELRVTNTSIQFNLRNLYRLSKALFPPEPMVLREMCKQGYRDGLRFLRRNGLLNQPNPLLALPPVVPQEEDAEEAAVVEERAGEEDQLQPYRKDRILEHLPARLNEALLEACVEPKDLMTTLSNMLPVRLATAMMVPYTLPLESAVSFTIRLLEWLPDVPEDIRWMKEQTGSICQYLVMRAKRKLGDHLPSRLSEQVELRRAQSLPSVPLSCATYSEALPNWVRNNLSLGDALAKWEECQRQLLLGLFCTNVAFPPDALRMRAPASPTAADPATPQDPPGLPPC
Procedure, shortened: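 Lysates of Expi cells overexpressing mouse ATGL, with added recombinant CGI-58, were incubated with inhibitor at 50 μM. Substrate was emulsified radiolabelled triolein with PC/PI in 100 mM potassium phosphate pH 7.0 and 5% FA-free BSA, 1 h at 37° C. Released FA were extracted and counted by scintillation; triplicates, DMSO control.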

[1] = Example 237, read-out: Inhibition of human ATGL − IC50
[2] = Example 238, read-out: Inhibition of human ATGL IC50

| SMILES | IC50 (human ATGL; [1]) | inhibition at 50 µM (murine ATGL) | melting point | IC50 (human ATGL; [2]) |
| --- | --- | --- | --- | --- |
| CCCCOC(=O)c1cccc(-c2ccc(OCC)cc2)n1 [Example 2] | 20 µM | 5.9% | 78 to 81 °C | – |
| CCOC(=O)c1cccc(-c2ccc(OCCOC)cc2)n1 [Example 8] | 10 µM | 9.1% | 89 to 94 °C | – |
| CCOC(=O)c1cc(C)cc(-c2ccc(OCC)cc2)n1 [Example 14] | 10 µM | 6.1% | 90 to 91 °C | – |
| CCOc1ccc(-c2cccc(C(=O)OC3CC3)n2)cc1 [Example 21] | 5 µM | 0% | 114 to 115 °C | – |
| CCOc1ccc(-c2cc(OC)cc(C(=O)OC)n2)cc1 [Example 26] | 12 µM | 23.1% | 94 to 103 °C | – |
| CCOc1ccc(-c2cccc(C(=O)OC(C)(C)C)n2)cc1 [Example 28] | 12 µM | 0% | 69 to 73 °C | – |
| CCCOC(=O)c1cccc(-c2ccc(OCC)cc2)n1 [Example 31] | 12 µM | 6% | 80 to 84 °C | – |
| C=CCOC(=O)c1cccc(-c2ccc(OCC)cc2)n1 [Example 32] | 6 µM | 18.6% | 65 to 70 °C | – |
| CC(C)OC(=O)c1cccc(-c2ccc(OC3CCCCO3)cc2)n1 (centres unmarked) [Example 36] | 8 µM | 9.6% | 105 to 107 °C | – |
| C#CCOC(=O)c1cccc(-c2ccc(OCC)cc2)n1 [Example 51] | 15 µM | 31.8% | 76 to 78 °C | – |
| CCCOc1ccc(-c2cc(OC)cc(C(=O)OC(C)C)n2)cc1 [Example 59] | 3 µM | – | 79 to 81 °C | – |
| CC(C)OC(=O)c1cccc(-c2ccc(C#Cc3ccccc3)cc2)n1 [Example 63] | 6 µM | – | 136 to 143 °C | – |
| COc1cc(C(=O)OC(C)C)nc(-c2ccc(-c3cccnc3)cc2)c1 [Example 65] | 6 µM | – | 118 to 121 °C | – |
| CCCc1ccc(-c2cccc(C(=O)OCC)n2)cc1 [Example 66] | 10 µM | – | 68 to 69 °C | – |
| CC(C)OC(=O)c1cccc(-c2ccc(CCc3ccccc3)cc2)n1 [Example 67] | 2 µM | – | 88 to 89 °C | – |
| CCOc1ccc(-c2cccc(C(=O)OC/C=C/c3ccccc3)n2)cc1 [Example 73] | 3 µM | – | 110 °C | – |
| COc1ccc(C#Cc2ccc(-c3cccc(C(=O)OC(C)C)n3)cc2)cc1 [Example 92] | 3 µM | – | 152 to 155 °C | – |
| CCC(C)OC(=O)c1cc(OC)cc(-c2ccc(OC(C)C)cc2)n1 (centres unmarked) [Example 202, sec-Butyl 6-(4-Isopropoxyphenyl)-4-methoxypicolinate] | – | – | 68 °C | 3 µM |
| COc1cc(C(=O)OC2CCC2)nc(-c2ccc(OC(C)C)cc2)c1 [Example 203, Cyclobutyl 6-(4-isopropoxyphenyl)-4-methoxypicolinate] | – | – | 116 to 118 °C | 10 µM |
| [2H]C([2H])([2H])C([2H])(OC(=O)c1cc(OC)cc(-c2ccc(OC(C)C)cc2)n1)C([2H])([2H])[2H] [Example 204, Propan-2-yl-d7 6-(4-isopropoxyphenyl)-4-methoxypicolinate] | – | – | 70 to 72 °C | 1 µM |
| CCc1ccc(-c2cc(OC)cc(C(=O)OC(C)C)n2)cc1 [Example 205, Isopropyl 6-(4-ethylphenyl)-4-methoxypicolinate] | – | – | 51 °C | 3 µM |
| COc1ccc(-c2cc(OC)cc(C(=O)OC(C)C)n2)cc1 [Example 206, Isopropyl 4-methoxy-6-(4-methoxyphenyl)picolinate] | – | – | 59 to 61 °C | 5 µM |

Continued, values first:

| IC50 (human ATGL; [1]) | inhibition at 50 µM (murine ATGL) | melting point | IC50 (human ATGL; [2]) | SMILES |
| --- | --- | --- | --- | --- |
| 5 µM | 1.8% | 75 to 77 °C | – | COCCOc1ccc(-c2cccc(C(=O)OC(C)C)n2)cc1 [Example 11] |
| 25 µM | 0% | 129 to 131 °C | – | CC(C)OC(=O)c1cccc(-c2ccc(CO)cc2)n1 [Example 12] |
| 6 µM | 0% | 45 to 46 °C | – | COCCOCCOc1ccc(-c2cccc(C(=O)OC(C)C)n2)cc1 [Example 15] |
| 3 µM | 18.1% | 46 to 47 °C | – | CCOCCOc1ccc(-c2cccc(C(=O)OC(C)C)n2)cc1 [Example 16] |
| 10 µM | 0% | 126 to 129 °C | – | CCS(=O)(=O)c1ccc(-c2cccc(C(=O)OC(C)C)n2)cc1 [Example 18] |
| 3 µM | 3.9% | 55 to 58 °C | – | COCc1ccc(-c2cccc(C(=O)OC(C)C)n2)cc1 [Example 19] |
| 15 µM | 16% | 71 to 75 °C | – | CC(=O)Oc1ccc(-c2cccc(C(=O)OC(C)C)n2)cc1 [Example 23] |
| 3 µM | 0% | 90 to 93 °C | – | CCCOc1ccc(-c2cccc(C(=O)OC(C)C)n2)cc1 [Example 27] |
| 6 µM | 0% | 56 to 62 °C | – | CCOC(=O)c1ccc(-c2cccc(C(=O)OC(C)C)n2)cc1 [Example 29] |
| 8 µM | 0% | 49 to 51 °C | – | CCOc1ccc(-c2cccc(C(=O)OC(C)CC)n2)cc1 (centres unmarked) [Example 30] |
| 10 µM | 22.8% | 43 to 47 °C | – | CC(C)OC(=O)c1cccc(-c2ccc(OC(F)(F)F)cc2)n1 [Example 37] |
| 5 µM | 5.7% | 70 to 75 °C | – | CC(C)OC(=O)c1cccc(-c2ccc(OCC(F)(F)F)cc2)n1 [Example 38] |
| 3 µM | 1.4% | 82 to 84 °C | – | CCc1ccc(-c2cccc(C(=O)OC(C)C)n2)cc1 [Example 55] |
| 6 µM | – | 93 to 96 °C | – | CCSc1ccc(-c2cccc(C(=O)OC(C)C)n2)cc1 [Example 64] |
| 2 µM | – | 112 to 113 °C | – | C#C[C@@H](C)OC(=O)c1cccc(-c2ccc(CCC)cc2)n1 [Example 71] |
| 3 µM | – | 60 to 61 °C | – | CSc1ccc(-c2cccc(C(=O)OC(C)C)n2)cc1 [Example 90] |
| 10 µM | – | 103 to 107 °C | – | CC(C)COc1ccc(-c2cccc(C(=O)OC(C)C)n2)cc1 [Example 96] |
